Measurements as given in patent publication US10760052B2, “Method of inhibiting tau phosphorylation” (priority 2012, dated 2020).
Like-named read-outs stand apart in the source and are kept apart here.

Target: T1, mu opiate receptor (MOR) (Rattus norvegicus, UniProt P33535)
T1 construct: from tissue; host or cells: striatum (membrane preparation)
Type: biochemical
Details: for [35S]GTPγS binding, FLNA-Binding Compound as Agonist at 0.1 μM: 0.1 μM compound; for [35S]GTPγS binding, FLNA-Binding Compound as Agonist at 0.1 μM / [35S]GTPγS binding, FLNA-Binding Compound as Agonist at 1 μM: striatal membranes; for [35S]GTPγS binding, FLNA-Binding Compound as Agonist at 0.1 μM / [35S]GTPγS binding, FLNA-Binding Compound as Agonist at 1 μM + BFNA / [35S]GTPγS binding, FLNA-Binding Compound as Agonist at 1 μM: Series C-2; for [35S]GTPγS binding, FLNA-Binding Compound as Agonist at 1 μM + BFNA: 1 μM compound + 1 μM β-FNA (selective MOR antagonist); for [35S]GTPγS binding, FLNA-Binding Compound as Agonist at 1 μM: 1 μM compound
Procedure: To assess the mu opiate receptor (MOR) agonist activity of positive compounds from the FLNA screening, compounds were tested in a [^35S]GTPγS binding assay using striatal membranes. […] This assay measures a functional consequence of receptor occupancy at one of the earliest receptor-mediated events. The assay permits for traditional pharmacological parameters of potency, efficacy and antagonist affinity, with the advantage that agonist measures are not subjected to amplification or other modulation that may occur when analyzing parameters further downstream of the receptor.
Thus, striatal tissue was homogenized in 10 volumes of ice cold 25 mM HEPES buffer, pH 7.4, which contained 1 mM EGTA, 100 mM sucrose, 50 μg/ml leupeptin, 0.04 mM PMSF, 2 μg/ml soybean trypsin inhibitor and 0.2% 2-mercaptoethanol. The homogenates were centrifuged at 800×g for 5 minutes and the supernatants were centrifuged at 49,000×g for 20 minutes.
The resultant striatal membrane preparation (200 μg) was admixed and maintained (incubated) at 30° C. for 5 minutes in reaction buffer as above that additionally contained 1 mM MgCl2 and 0.5 nM [^35S]GTPγS (0.1 μCi/assay, PerkinElmer Life and Analytical Sciences) in a total volume of 250 μl and continued for 5 minutes in the absence or presence of 0.1-10 μM of an assayed compound of interest. The reaction was terminated by dilution with 750 μl of ice-cold reaction buffer that contained 20 mM MgCl2 and 1 mM EGTA and immediate centrifugation at 16,000×g for 5 minutes.
Normal rabbit serum (1 μl) was added to 1 ml of lysate and incubated at 25° C. for 30 minutes. Nonspecific immune complexes were removed by incubation with 25 μl of protein A/G-conjugated agarose beads at 25° C. for 30 minutes followed by centrifugation at 5,000×g at 4° C. for 5 minutes. The supernatant was divided and separately incubated at 25° C. for 30 minutes with antibodies raised against Gαo proteins (1:1,000 dilutions).
The immunocomplexes so formed were collected by incubation at 25° C. for 30 minutes with 40 μl of agarose-conjugated protein A/G beads and centrifugation at 5,000×g at 4° C. for 5 minutes. The pellet was washed and suspended in buffer containing 50 mM Tris-HCl, pH 8.0, and 1% NP-40. The radioactivity in the suspension was determined by liquid scintillation spectrometry.

[1] = [35S]GTPγS binding to Gαo in striatal membranes, compound 0.1 μM
[2] = [35S]GTPγS binding to Gαo in striatal membranes, compound 1 μM
[3] = [35S]GTPγS binding to Gαo in striatal membranes, compound 1 μM plus 1 μM β-funaltrexamine (MOR antagonist)

T1 sequence (P33535 whole entry): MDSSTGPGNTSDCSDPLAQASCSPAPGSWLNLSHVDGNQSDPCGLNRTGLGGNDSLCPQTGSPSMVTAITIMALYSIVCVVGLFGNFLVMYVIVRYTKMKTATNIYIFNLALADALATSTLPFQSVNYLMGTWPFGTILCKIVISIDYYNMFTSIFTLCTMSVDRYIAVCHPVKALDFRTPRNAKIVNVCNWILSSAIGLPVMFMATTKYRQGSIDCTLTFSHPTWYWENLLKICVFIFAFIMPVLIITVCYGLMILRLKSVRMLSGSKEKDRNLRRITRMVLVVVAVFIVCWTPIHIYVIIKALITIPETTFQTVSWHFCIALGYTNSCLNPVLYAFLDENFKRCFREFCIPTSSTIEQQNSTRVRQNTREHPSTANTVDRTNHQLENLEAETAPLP

SMILES	% DAMGO (0.1 μM) [%]	% DAMGO (1 μM) [%]	% DAMGO + BFNA [%]	[35S]GTPγS binding, FLNA-Binding Compound as Agonist at 0.1 μM [%]	[35S]GTPγS binding, FLNA-Binding Compound as Agonist at 1 μM + BFNA [%]	[35S]GTPγS binding, FLNA-Binding Compound as Agonist at 1 μM [%]	Concentration of FLNA-Binding Compound as Agonist 0.1 μM [1] [%]	Concentration of FLNA-Binding Compound as Agonist 1 μM [2] [%]	Concentration of FLNA-Binding Compound as Agonist 1 μM + BFNA [3] [%]	Concentration of FLNA-Binding Compound as Agonist 0.1 μM [%]	Concentration of FLNA-Binding Compound as Agonist 1 μM [%]	Concentration of FLNA-Binding Compound as Agonist 1 μM + BFNA [%]
O=C1CN(C2CCc3ccccc3C2)C2(CCN(S(=O)(=O)c3ccccc3)CC2)N1 (stereo not drawn) [C0136M(P5)]	93.4	95.6	153.6	176.8	74.5	237.3						
O=C1CN(Cc2ccccc2)C2(CCN(C3CCCCC3)CC2)N1 [C0137M (P7)]	95.6	78.1	115.1	180.8	55.8	193.8						
COc1ccccc1CC(=O)CC1c2c(cc3c(c2OC)OCO3)CC[N+]1(C)C (stereo not drawn) [Compound 5009]	66.9	83.2	181.5				128.5	270.4	87.5			
COc1ccc(S(=O)(=O)N2CCC3(CC2)OCCN3S(=O)(=O)c2ccc(OC)cc2)cc1 [Compound 7866]	79.3	94.8	129.5				152.3	308.2	62.4			
CC1CCC(C(C)C)C(OCC(O)CN2CCCC2)C1 (stereo not drawn) [Compound A0001]	63.1	78.9	83.8				94.3	181.7	22.2			
CC1CCC(C(C)C)C(OCC(O)CN2CCSC2)C1 (stereo not drawn) [Compound A0002]	104.1	86.6	24.5				155.6	199.4	6.5			
CC1CCC(C(C)C)C(OCC(O)CN2CCSCC2)C1 (stereo not drawn) [Compound A0003]	118.3	119.9	64.5							176.8	276.0	17.1
CC1CCC(C(C)C)C(OCC(O)CN2CCOCC2)C1 (stereo not drawn) [Compound A0004]	55.2	55.6	130.9				97.4	144.2	86.0			
CC1CCC(C(C)C)C(OCC(O)CN2CCCCC2)C1 (stereo not drawn) [Compound A0005]	105.0	89.6	45.1				179.7	239.2	23.5			
CC1CCN(CC(O)COC2CC(C)CCC2C(C)C)CC1 (stereo not drawn) [Compound A0006]	113.8	82.9	68.7				170.0	190.9	18.2			
CC1CCC(C(C)C)C(OCC(O)CN2CCCCC2C)C1 (stereo not drawn) [Compound A0007]	68.3	96.4	152.5				102.0	221.9	40.4			
CC1CCC(C(C)C)C(OCC(O)CN2CC(C)CC(C)C2)C1 (stereo not drawn) [Compound A0008]	109.6	102.1	505.3				163.8	235.0	133.9			
CC1CCC(C(C)C)C(OCC(O)CN2CCN(C)CC2)C1 (stereo not drawn) [Compound A0009]	39.8	48.7	142.9				70.2	126.4	93.9			
CC1CCC(C(C)C)C(OCC(O)CN2CCCN(C)CC2)C1 (stereo not drawn) [Compound A0010]	161.9	119.5	365.3				277.2	319.0	190.3			
CC1CCC(C(C)C)C(OCC(O)CN2CCN(CCN3CCOCC3)CC2)C1 (stereo not drawn) [Compound A0011]	158.2	124.9	177.4				236.3	287.5	47.0			
COc1ccc(N2CCN(CC(O)COC3CC(C)CCC3C(C)C)CC2)c(OC)c1 (stereo not drawn) [Compound A0012]	99.9	80.7	461.9				149.3	185.7	122.4			
CC1CCC(C(C)C)C(OCC(O)CN2CCCCCC2)C1 (stereo not drawn) [Compound A0013]	57.8	63.6	131.1				102.1	164.8	86.1			
CC1CCC(C(C)C)C(OCC(O)CN2CCCCCCC2)C1 (stereo not drawn) [Compound A0014]	83.2	67.5	214.3				147.0	174.9	140.8			
CC1CCC(C(C)C)C(OCC(O)CN2CCC2)C1 (stereo not drawn) [Compound A0015]	64.8	56.2	120.0				110.9	150.1	62.5			
CC1CN(CC(O)COC2CCCCC2)CC(C)O1 (stereo not drawn) [Compound A0017]	96.9	100.4	187.9				161.9	246.0	65.2			
CC1CCC(C(C)C)C(OCC(O)CN2CCN(CCc3ccccc3)CC2)C1 (stereo not drawn) [Compound A0020]	100.9	88.7	194.2				168.6	217.4	67.4			
CC1CCCC(OCC(O)CN2CC(C)OC(C)C2)C1 (stereo not drawn) [Compound A0021]	79.8	112.4	34.9				133.3	275.3	12.1			
CC1CCC(C)C(OCC(O)CN2CC(C)OC(C)C2)C1 (stereo not drawn) [Compound A0022]	90.0	80.9	53.7				154.1	216.0	28.0			
CC1CN(CC(O)COc2ccccc2)CC(C)O1 (stereo not drawn) [Compound A0025]	33.2	54.5	198.5				58.6	138.7	52.2			
